Experiments:
[1] = tested on: Colo205 tumor cells; experiment: Cell growth inhibition assay (CellTiter-Glo), Colo205; assay type: cell-based, Human; details: Homo sapiens, COLO 205, 72 h; 3 days incubation
Description: (§1) Human breast tumor cells (BT474) were cultured in RPMI (Mediatech […]), containing 10% FBS (JRH Biosciences 12176) and 1% penicillin-streptomycin (Invitrogen 15140). Human head and neck tumor cells (HN5) were cultured in high glucose DMEM (Mediatech 50-013-PB) containing 10% FBS and 1% penicillin-streptomycin. Human colon tumor cells (Colo205) were cultured in RPMI (Mediatech 50-020-PB) containing 10% FBS and 1% penicillin-streptomycin. Human melanoma cancer cells (SK-MEL-28) were cultured in EMEM with nonessential amino acids (Mediatech 50-011-PB) containing 10% FBS, 1% sodium pyruvate (JT Baker 3354-04), and 1% penicillin-streptomycin. Human melanoma cancer cells (A375P F11s) were cultured in RPMI (Mediatech 50-020-PB) containing 10% FBS, 1% sodium pyruvate, and 1% penicillin-streptomycin. Human colon cancer cells (HT-29) were cultured in high glucose DMEM (Mediatech 50-013-PB) containing 10% FBS and 1% penicillin-streptomycin. Human melanoma cancer cells (SK-MEL-3) were cultured in McCoy's 5A (50-025-PB) containing 15% FBS, and 1% penicillin-streptomycin. All cell lines were maintained at 37° C. in a humidified 5% CO2, 95% air incubator. Cells were harvested using trypsin/EDTA (Invitrogen 25200), counted using a haemocytometer, and plated. For 96-well assays (using white full-area NUNC plates cat. #136102), cells were plated in 105 μL at the following densities (cells/well): HNS, 500; Colo 205, 500; SK-MEL-28, 500; A375P F11s, 500; HT-29, 500; SK-MEL-3, 500; and BT474, 3000. For 384-well assays (white full-area NUNC plates, cat. #781080), cells were plated in 48 μL at the following densities (cells/well): HNS, 500; Colo205, 500; SK-MEL-28, 500; A375P F11s, 500; HT-29, 500; SK-MEL-3, 500; and BT474, 2000.
(§2) The next day, compounds were diluted as follow: For 96-well assays, 13.5 μL of compound in DMSO were diluted using nine (9) serial 1:3 dilutions of 4.5 μL in 9 of DMSO. Medium (270 μL/well of RPMI with 10% FBS and 1% penicillin-streptomycin) was added to the plates. Aliquots (7 μL) were added to cells in the final assay giving a final DMSO concentration of 0.2%. For 384-well assays, 15 μL of compound in DMSO were diluted using nine (9) serial 1:3 dilutions of 5 μL in 10 μL of DMSO, followed by a further dilution of 5 μL of compound with 95 μL of medium, of which 2 μL were added to cells in the final assay giving a final DMSO concentration of 0.2%. Cells were incubated at 37° C., 5% CO2 for 3 days.
(§3) Total ATP was measured (as a surrogate estimate of cell number) using CellTiter-Glo® reagent (Promega G7571). Briefly, plates were removed from the incubator and allowed to equilibrate to room temperature for 30 minutes. CellTiter-Glo® (25 μL or 55 μL for 384-well or 96-well assays, respectively) reagent was added to each well and plates were shaken on an orbital plate shaker for 2 minutes. Plates were incubated without shaking for a further 30 minutes and read on an LJL Analyst GT reader in luminometer mode with an integration time of 0.5 seconds per well. Percent inhibition of cell growth was calculated relative to DMSO vehicle-treated control wells. Concentration of compound required to give 50% inhibition of vehicle-treated control cell growth (IC50) was interpolated using a 4-parameter fit for determining IC50 using the following equation: Y=A +((B−A)/(1+((C/X)̂D))) where […].

[2] = molecular target: T1, EGFR (Homo sapiens, UniProt P00533); experiment: EGFR substrate phosphorylation assay (HTRF); assay type: biochemical
T1 construct: made in house; host or cells: baculovirus expression system
T1 sequence (P00533 25-1210): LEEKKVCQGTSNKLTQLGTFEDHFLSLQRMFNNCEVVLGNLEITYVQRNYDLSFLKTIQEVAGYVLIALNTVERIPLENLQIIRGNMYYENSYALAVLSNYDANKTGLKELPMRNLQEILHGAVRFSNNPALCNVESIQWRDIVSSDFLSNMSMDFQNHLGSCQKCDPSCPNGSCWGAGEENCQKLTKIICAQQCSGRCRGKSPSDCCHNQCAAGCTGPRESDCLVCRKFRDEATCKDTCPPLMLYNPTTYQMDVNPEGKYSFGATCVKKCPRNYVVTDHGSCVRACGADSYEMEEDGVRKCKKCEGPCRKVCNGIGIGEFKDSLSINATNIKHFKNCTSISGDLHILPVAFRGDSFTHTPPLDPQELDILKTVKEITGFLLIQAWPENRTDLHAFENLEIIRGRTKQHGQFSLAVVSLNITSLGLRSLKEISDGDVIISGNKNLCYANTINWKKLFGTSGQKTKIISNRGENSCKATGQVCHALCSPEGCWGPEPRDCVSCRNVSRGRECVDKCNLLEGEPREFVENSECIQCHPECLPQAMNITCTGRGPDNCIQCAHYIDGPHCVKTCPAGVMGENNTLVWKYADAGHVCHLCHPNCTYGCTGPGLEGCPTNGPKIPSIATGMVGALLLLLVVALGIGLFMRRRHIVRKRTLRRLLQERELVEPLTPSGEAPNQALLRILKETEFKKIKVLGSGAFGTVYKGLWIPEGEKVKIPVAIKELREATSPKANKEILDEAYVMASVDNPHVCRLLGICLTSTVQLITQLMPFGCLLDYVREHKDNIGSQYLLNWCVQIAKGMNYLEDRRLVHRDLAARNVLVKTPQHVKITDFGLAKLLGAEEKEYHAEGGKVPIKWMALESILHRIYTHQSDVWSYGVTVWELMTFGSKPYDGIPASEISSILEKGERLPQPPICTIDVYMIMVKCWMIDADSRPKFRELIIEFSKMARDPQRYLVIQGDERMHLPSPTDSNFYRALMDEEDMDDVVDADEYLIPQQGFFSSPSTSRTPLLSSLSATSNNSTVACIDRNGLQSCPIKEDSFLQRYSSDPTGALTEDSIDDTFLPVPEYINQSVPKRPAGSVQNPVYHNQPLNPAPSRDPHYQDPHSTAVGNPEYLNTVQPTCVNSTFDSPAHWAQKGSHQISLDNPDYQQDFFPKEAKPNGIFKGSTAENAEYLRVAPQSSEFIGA
Description: (§4) Compounds of the present invention were tested for EGFR and ErbB-2 protein tyrosine kinase inhibitory activity in substrate phosphorylation assays using enzymes purified from a baculovirus expression system. Reagent production was conducted essentially as described in Brignola, P. S., et al, (2002) J. Biol. Chem. 277(2):1576-1585.
(§5) The method measures the ability of the isolated enzyme to catalyse the transfer of the gamma-phosphate from ATP onto the tyrosine residue of a biotinylated synthetic peptide referenced “Peptide C” in Brignola, P. S., et al, (2002) J. Biol. Chem. 277(2):1576-1585. The extent of tyrosine phosphorylation was measured using an anti-phosphotyrosine antibody, and quantified by homogenous time-resolved fluorescence (HTRF).
(§6) Reactions were performed in black 384-well polystyrene flat-bottom plates in a final volume of 20 μL. Assays were performed by adding 10 μL of each of the following solutions, Substrate Mix and Enzyme Mix: The Substrate Mix contained 100 mM 3-[N-morpholino]propanesulfonic acid (MOPS) (pH 7.5), 2 mM MnCl2, 20 μM ATP, 0.01% Tween-20, 0.1 mg/mL (BSA), 0.8 uM peptide substrate, and 1 mM dithiothreitol. The Enzyme Mix contained 100 mM MOPS (pH7.5); 0.01% Tween-20; 0.1 mg/mL BSA, and either 0.8 nM EGFR, 10 nM ErbB2, or 1 nM ErbB4. The Enzyme Mix was added to the compound plates and the plates were incubated at 20° C. for 1 hr. The reactions were then started by adding the Substrate Mix.
(§7) After initiating the reaction with the method described above, the reactions were allowed to proceed for 90 minutes at 20° C. The reactions were then terminated by the addition of 20 μL 100 mM EDTA to each well. 40 μL/well of HTRF detection mix were added to the assay plates. The final concentrations of the detection reagents were: 100 mM HEPES (pH7.5), 0.1 mg/mL BSA, 15 nM streptavidin-labeled allophycocyanin (PerkinElmer), and 1 nM europium-labeled anti-phosphotyrosine antibody (Perkin Elmer). Assay plates were left unsealed and were counted in a Wallac Multilabel Counter 1420 (PerkinElmer).
(§8) Compounds under analysis were dissolved in dimethylsulfoxide (DMSO) to 1.0 mM and serially diluted 1 to 3 with DMSO through twelve dilutions. 1 μL of each concentration was transferred to the corresponding well of an assay plate. This creates a final compound concentration range from 0.00027 to 47.6 μM.
(§9) The data for dose responses were plotted as % Inhibition calculated with the data reduction formula 100*(1-(U1−C2)/(C1−C2)) versus concentration of compound where U1 is the unknown value, C1 is the average control value obtained for 4.76% DMSO, and C2 is the average control value obtained for 0.035 M EDTA. Data were fitted with a curve described by:
(§10) where Vmax is the upper asymptote, Y2 is the Y intercept, and K is the IC50. The results for each compound were recorded as pIC50s, calculated as follows: […]

[3] = molecular target: T2, ErbB2 (Homo sapiens, UniProt P04626); experiment: ErbB-2 substrate phosphorylation assay (HTRF); assay type: biochemical
T2 construct: made in house; host or cells: baculovirus expression system
T2 sequence (P04626 23-1255): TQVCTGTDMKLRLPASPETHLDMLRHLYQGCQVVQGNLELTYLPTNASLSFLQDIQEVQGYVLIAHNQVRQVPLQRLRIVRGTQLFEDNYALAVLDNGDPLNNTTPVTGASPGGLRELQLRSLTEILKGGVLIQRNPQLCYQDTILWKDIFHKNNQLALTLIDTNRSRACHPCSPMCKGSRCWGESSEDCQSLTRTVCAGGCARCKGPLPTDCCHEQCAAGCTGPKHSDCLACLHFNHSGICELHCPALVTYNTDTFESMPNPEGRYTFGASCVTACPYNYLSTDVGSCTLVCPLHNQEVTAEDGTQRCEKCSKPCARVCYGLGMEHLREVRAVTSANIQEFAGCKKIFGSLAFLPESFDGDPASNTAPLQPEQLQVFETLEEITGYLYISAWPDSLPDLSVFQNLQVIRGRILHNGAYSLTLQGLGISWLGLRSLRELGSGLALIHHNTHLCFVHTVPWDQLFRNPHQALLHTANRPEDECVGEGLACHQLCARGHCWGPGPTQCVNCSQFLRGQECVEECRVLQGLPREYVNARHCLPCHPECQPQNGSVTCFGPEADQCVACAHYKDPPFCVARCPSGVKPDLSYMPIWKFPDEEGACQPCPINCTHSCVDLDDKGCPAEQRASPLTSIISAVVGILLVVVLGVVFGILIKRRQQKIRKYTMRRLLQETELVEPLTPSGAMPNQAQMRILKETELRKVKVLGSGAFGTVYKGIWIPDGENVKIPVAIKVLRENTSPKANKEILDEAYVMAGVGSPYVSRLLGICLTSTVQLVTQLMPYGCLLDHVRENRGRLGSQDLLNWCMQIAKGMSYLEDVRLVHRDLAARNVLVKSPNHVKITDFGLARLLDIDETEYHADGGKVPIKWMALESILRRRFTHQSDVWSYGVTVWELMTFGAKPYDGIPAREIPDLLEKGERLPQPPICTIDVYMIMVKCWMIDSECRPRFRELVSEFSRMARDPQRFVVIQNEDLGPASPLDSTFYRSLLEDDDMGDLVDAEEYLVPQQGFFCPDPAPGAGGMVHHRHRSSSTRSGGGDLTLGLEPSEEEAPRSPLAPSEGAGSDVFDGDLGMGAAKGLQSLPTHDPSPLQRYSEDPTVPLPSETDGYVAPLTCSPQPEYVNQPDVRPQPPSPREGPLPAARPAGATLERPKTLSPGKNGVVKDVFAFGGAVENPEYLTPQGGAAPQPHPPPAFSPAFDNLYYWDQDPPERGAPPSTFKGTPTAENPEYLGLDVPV
Description: as §4, §5, §6, §7, §8, §9, §10

[4] = tested on: SK-MEL-28 tumor cells; experiment: Cell growth inhibition assay (CellTiter-Glo), SK-MEL-28; assay type: cell-based, Human; details: Homo sapiens, SK-MEL-28, 72 h; 3 days incubation
Description: as §1, §2, §3

[5] = molecular target: B-Raf (Homo sapiens, UniProt P15056); experiment: B-Raf Accelerated MEK ATPase assay (BRAMA), Method A or B; assay type: biochemical; details: Method B: final MEK 150 nM, single end point read
Sequence of B-Raf (P15056 whole entry): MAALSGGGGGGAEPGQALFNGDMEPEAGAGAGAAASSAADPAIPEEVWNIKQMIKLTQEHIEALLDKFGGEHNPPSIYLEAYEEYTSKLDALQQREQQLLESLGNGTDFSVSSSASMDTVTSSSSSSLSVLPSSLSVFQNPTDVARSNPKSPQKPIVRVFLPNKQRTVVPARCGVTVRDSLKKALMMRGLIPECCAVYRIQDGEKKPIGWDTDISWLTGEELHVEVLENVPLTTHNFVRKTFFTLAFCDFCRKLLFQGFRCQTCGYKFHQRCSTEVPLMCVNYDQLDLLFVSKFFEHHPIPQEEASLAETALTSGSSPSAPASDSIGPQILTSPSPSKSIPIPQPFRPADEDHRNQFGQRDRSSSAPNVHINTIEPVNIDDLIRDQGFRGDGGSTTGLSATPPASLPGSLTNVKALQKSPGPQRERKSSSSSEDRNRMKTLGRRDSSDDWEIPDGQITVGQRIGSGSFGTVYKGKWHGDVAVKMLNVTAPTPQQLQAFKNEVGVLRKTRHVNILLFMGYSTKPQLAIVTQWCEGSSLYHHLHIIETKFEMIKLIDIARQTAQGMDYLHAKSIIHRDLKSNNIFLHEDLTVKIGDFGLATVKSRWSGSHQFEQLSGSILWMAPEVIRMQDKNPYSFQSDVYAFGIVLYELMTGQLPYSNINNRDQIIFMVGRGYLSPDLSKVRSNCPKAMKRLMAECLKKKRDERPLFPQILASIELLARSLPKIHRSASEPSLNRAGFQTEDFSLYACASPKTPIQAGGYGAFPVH
Description: Compounds of the present invention were tested for B-Raf protein serine kinase inhibitory activity in a B-Raf Accelerated MEK ATPase assay (BRAMA). The BRAMA assay is a high sensitivity assay which measures an intrinsic MEK-mediated ATP hydrolysis uncoupled from downstream ERK phosphorylation by coupling the formation of ADP to NADH oxidation through the enzymes pyruvate kinase and lactate dehydrogenase. When ADP production is initiated by addition of catalytic amounts of an activated Raf enzyme and non-phosphorylated MEK, one observes robust ADP production concomitant with Raf-mediated phosphorylation of MEK.
Method A: Specific details of the assay are disclosed in: C. Rominger, M. Schaber, E. May. Assay for B-Raf Activity Based on Intrinsic MEK ATPase Activity. Statutory Invention Registration 11/084,993 (March, 2005). Method B: The method is the same as method A, but includes the following changes: 1) the assay was performed with a final MEK concentration of 150 nM and 2) the assay was read as single end point instead of a kinetic read.

Row | IC50 [1] | IC50 [2] | IC50 [3] | IC50 [4] | IC50 [5] | SMILES
1 | > 1000 nM | 100 to 1000 nM | 100 to 1000 nM | > 1000 nM | 100 to 1000 nM | CCc1nc(-c2cccc(CNS(=O)(=O)c3ccccc3)c2)c(-c2ccnc(Nc3ccc(N4CCN(CCS(C)(=O)=O)CC4)c(F)c3)n2)s1 [Example 35]
2 | > 1000 nM | < 100 nM | < 100 nM | > 1000 nM | 100 to 1000 nM | COc1ccc(Nc2nccc(-c3sc(C(C)C)nc3-c3cccc(NS(=O)(=O)Cc4ccccc4)c3)n2)cc1N1CCN(CCS(C)(=O)=O)CC1 [Example 37]
3 | > 1000 nM | > 1000 nM | > 1000 nM | > 1000 nM | 100 to 1000 nM | CC(C)c1nc(-c2cccc(NS(=O)(=O)c3cn(C)nc3C(F)(F)F)c2)c(-c2ccnc(Nc3ccc(N4CCOCC4)nc3)n2)s1 [Example 40]
4 | > 1000 nM | > 1000 nM | > 1000 nM | > 1000 nM | 100 to 1000 nM | Cc1[nH]c(=O)[nH]c(=O)c1S(=O)(=O)Nc1cccc(-c2nc(C(C)C)sc2-c2ccnc(Nc3ccc(N4CCOCC4)nc3)n2)c1 [Example 41]
5 | > 1000 nM | > 1000 nM | 100 to 1000 nM | > 1000 nM | 100 to 1000 nM | COc1cc(N2CCN(CCS(C)(=O)=O)CC2)c(C)cc1Nc1nccc(-c2sc(C(C)C)nc2-c2cccc(NS(=O)(=O)c3cn(C)cn3)c2)n1 [Example 43]
6 | 100 to 1000 nM | < 100 nM | < 100 nM | 100 to 1000 nM | 100 to 1000 nM | COc1cc(N2CCN(CCS(C)(=O)=O)CC2)c(C)cc1Nc1nccc(-c2sc(C(C)C)nc2-c2cccc(NS(=O)(=O)c3c(F)cccc3F)n2)n1 [Example 45]
7 | < 100 nM | > 1000 nM | < 100 nM | 100 to 1000 nM | 100 to 1000 nM | COc1cc(N2CCN(CCS(C)(=O)=O)CC2)c(C)cc1Nc1nccc(-c2sc(C(C)C)nc2-c2cncc(NS(=O)(=O)c3c(F)cccc3F)c2)n1 [Example 48]
8 | < 100 nM | < 100 nM | < 100 nM | 100 to 1000 nM | < 100 nM | COc1cc(N2CCN(CCS(C)(=O)=O)CC2)c(C)cc1Nc1nccc(-c2sc(C(C)C)nc2-c2cccc(NS(=O)(=O)c3cccs3)c2)n1 [Example 50]
9 | < 100 nM | 100 to 1000 nM | < 100 nM | < 100 nM | < 100 nM | COc1cc(N2CCN(CCS(C)(=O)=O)CC2)c(C)cc1Nc1nccc(-c2sc(C(C)C)nc2-c2cccc(NS(=O)(=O)c3cccnc3)c2)n1 [Example 54]
10 | < 100 nM | < 100 nM | < 100 nM | 100 to 1000 nM | < 100 nM | COc1cc(N2CCN(CCS(C)(=O)=O)CC2)c(C)cc1Nc1nccc(-c2sc(C(C)C)nc2-c2cccc(NS(=O)(=O)c3ccco3)c2)n1 [Example 55]
11 | 100 to 1000 nM | > 1000 nM | > 1000 nM | 100 to 1000 nM | < 100 nM | O=S(=O)(Nc1cc(-c2nc(N3CCCC3)oc2-c2ccnc(Nc3ccc(N4CCOCC4)c(F)c3)n2)ccc1F)c1ccccc1F [Example 59]
12 | 100 to 1000 nM | > 1000 nM | > 1000 nM | > 1000 nM | < 100 nM | CS(=O)(=O)N1CCN(c2ccc(Nc3nccc(-c4oc(N5CCCC5)nc4-c4ccc(F)c(NS(=O)(=O)c5ccccc5F)c4)n3)cn2)CC1 [Example 60]
13 | 100 to 1000 nM | > 1000 nM | 100 to 1000 nM | 100 to 1000 nM | < 100 nM | CC(C)c1nc(-c2ccc(F)c(NS(=O)(=O)c3c(F)cccc3F)c2)c(-c2ccnc(Nc3ccc(N4CCN(CCS(C)(=O)=O)CC4)c(F)c3)n2)o1 [Example 61]
14 | 100 to 1000 nM | 100 to 1000 nM | < 100 nM | > 1000 nM | 100 to 1000 nM | COc1cc(N2CCN(CCS(C)(=O)=O)CC2)c(C)cc1Nc1nccc(-c2sc(N)nc2-c2cccc(NS(=O)(=O)c3c(F)cccc3F)c2)n1 [Example 63]
15 | < 100 nM | – | > 1000 nM | 100 to 1000 nM | 100 to 1000 nM | COc1cc(N2CCC(CCS(C)(=O)=O)CC2)c(C)cc1Nc1nccc(-c2sc(N3CCCC3)nc2-c2cccc(NS(=O)(=O)c3c(F)cccc3F)c2)n1 [Example 137]
16 | – | > 1000 nM | > 1000 nM | > 1000 nM | < 100 nM | COc1ccc(S(C)(=O)=O)cc1Nc1nccc(-c2sc(N3CCOCC3)nc2-c2cccc(NS(=O)(=O)c3c(F)cccc3F)c2OC)n1 [Example 168]
